Measured values published in the supplement of paper PMC10307832.

Experiments:
Experiment in all cases: relative viability (nuclei count vs DMSO), 5 days (fraction); higher = more cells survive
[1] = compound: C1=CC=C2C(=C1)N=C(S2)C(C#N)C3=NC(=NC=C3)NCCC4=CN=CC=C4 + COc1cc2c(Oc3ccc(NC(=O)C4(C(=O)Nc5ccc(F)cc5)CC4)cc3F)ccnc2cc1OCCCN1CCOCC1 [Foretinib] (partner 0.25 µM)
Procedure, shortened: (§1)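 Nuclei were stained with Hoechst during a one-step fixation (final 0.05% Triton X-100, 1% formaldehyde, 1 ug/ml Hoechst) carried out 5 days after dosing, then counted on 4× images. The cells, lung cancer lines in 1536-well plates, had been dosed by pin tool the day after seeding with one drug alone or a fixed anchor-drug dose plus five library-drug doses (not always all listed) in √10 steps. Relative viability is the nuclei count in treated wells divided by that in vehicle wells, and each value is the median of duplicate plates.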

[2] = compound: C1=CC=C2C(=C1)N=C(S2)C(C#N)C3=NC(=NC=C3)NCCC4=CN=CC=C4 + CS(=O)(=O)CCNCc1ccc(-c2ccc3ncnc(Nc4ccc(OCc5cccc(F)c5)c(Cl)c4)c3c2)o1 [Lapatinib] (partner 2 µM)
Procedure, shortened: as §1

Vandetanib + Navitoclax = compound: COc1cc2/c(=N/c3ccc(Br)cc3F)nc[nH]c2cc1OCC1CCN(C)CC1 [Vandetanib] + CC1(C)CCC(c2ccc(Cl)cc2)=C(CN2CCN(c3ccc(C(=O)NS(=O)(=O)c4ccc(N[C@H](CCN5CCOCC5)CSc5ccccc5)c(S(=O)(=O)C(F)(F)F)c4)cc3)CC2)C1 [Navitoclax] (partner 0.5 µM)
Procedure, shortened: as §1

Vandetanib + Decitabine = compound: COc1cc2/c(=N/c3ccc(Br)cc3F)nc[nH]c2cc1OCC1CCN(C)CC1 [Vandetanib] + Nc1ncn([C@H]2C[C@H](O)[C@@H](CO)O2)c(=O)n1 [Decitabine] (partner 2 µM)
Procedure, shortened: as §1

| Cell Line | relative viability ([1]; first compound 0.005 µM) | relative viability ([1]; first compound 0.05 µM) | relative viability ([1]; first compound 0.1581 µM) | relative viability ([1]; first compound 0.5 µM) | relative viability ([2]; first compound 0.005 µM) | relative viability ([2]; first compound 0.01581 µM) | relative viability ([2]; first compound 0.05 µM) | relative viability ([2]; first compound 0.1581 µM) | relative viability ([2]; first compound 0.5 µM) | relative viability (Vandetanib + Navitoclax; first compound 0.02 µM) | relative viability (Vandetanib + Navitoclax; first compound 0.06325 µM) | relative viability (Vandetanib + Navitoclax; first compound 0.2 µM) | relative viability (Vandetanib + Navitoclax; first compound 0.6325 µM) | relative viability (Vandetanib + Navitoclax; first compound 2 µM) | relative viability (Vandetanib + Decitabine; first compound 0.02 µM) | relative viability (Vandetanib + Decitabine; first compound 0.06325 µM) | relative viability (Vandetanib + Decitabine; first compound 0.2 µM) | relative viability (Vandetanib + Decitabine; first compound 0.6325 µM) | relative viability (Vandetanib + Decitabine; first compound 2 µM) | relative viability ([1]; first compound 0.01581 µM) |
| --- | --- | --- | --- | --- | --- | --- | --- | --- | --- | --- | --- | --- | --- | --- | --- | --- | --- | --- | --- | --- |
| 201T | 1.19 | 1.01 | 1.08 | 0.625 | 0.981 | 0.958 | 1.01 | 1.09 | 1.02 | 1.1 | 1.19 | 1.2 | 1.15 | 1.19 | 0.831 | 0.828 | 0.859 | 0.85 | 0.797 |  |
| A549 |  | 0.971 | 1.05 | 0.728 | 1.04 | 0.97 | 1.04 | 1.07 | 0.942 | 1.12 | 1.23 | 1.12 | 1.08 | 1.22 | 0.189 | 0.267 | 0.281 | 0.252 | 0.34 | 1.03 |
| A-427 | 1.22 | 0.946 | 1.22 | 1.32 | 0.78 | 0.889 | 1.01 | 1.12 | 1.08 | 0.931 | 0.952 | 0.992 | 0.935 | 0.874 | 0.58 | 0.59 | 0.541 | 0.517 | 0.574 | 1.21 |
| ABC-1 | 1.2 | 0.935 | 1.12 | 1 | 1.08 | 1.26 | 1.21 | 1.02 | 1.21 |  |  |  |  |  | 1.14 | 1.04 | 1.13 | 1.4 | 0.833 | 1.01 |
| BEN | 0.658 | 0.684 | 0.847 | 0.858 | 0.561 | 0.689 | 0.62 | 0.792 | 0.826 | 0.0787 | 0.0663 | 0.063 | 0.0857 | 0.0698 | 0.651 | 0.7 | 0.625 | 0.725 | 0.446 | 0.557 |
| CAL-12T | 1.06 | 0.931 | 1.27 | 0.967 | 0.782 |  |  | 0.675 | 0.674 | 1.22 | 1.19 | 1.37 | 1.28 | 1.13 |  |  |  |  |  | 1.11 |
| COR-L23 | 0.861 | 0.961 | 1.29 | 0.798 | 0.629 | 1.15 | 1.01 | 1.29 | 0.71 | 0.95 | 0.915 | 0.114 | 1.07 | 0.954 | 0.447 | 0.442 | 0.491 | 0.401 | 0.422 | 1.03 |
| COR-L 105 | 0.802 | 0.963 | 1.26 | 0.878 | 0.362 | 0.336 | 0.342 | 0.372 | 0.369 | 0.833 | 0.888 | 0.826 | 0.804 | 0.353 | 0.683 | 0.574 | 0.622 | 0.561 | 0.505 | 1.12 |
| Calu-6 | 0.875 | 0.817 | 0.884 | 0.822 | 0.877 | 1.05 | 0.959 | 1.18 | 0.958 | 0.891 | 0.761 | 0.973 | 0.895 | 0.734 |  |  |  |  |  | 0.873 |
| ChaGo-K-1 |  | 0.838 | 1.06 | 0.932 |  |  |  |  |  | 0.939 | 0.998 | 0.942 | 1.24 | 0.489 | 0.518 | 0.519 | 0.287 | 0.496 | 0.523 | 0.954 |
| EBC-1 | 0.123 | 0.0991 | 0.112 | 0.0984 | 0.272 | 0.19 | 0.239 | 0.194 | 0.259 | 0.36 | 0.39 | 0.449 | 0.366 | 0.38 |  |  |  |  |  | 0.103 |
| EKVX | 0.8 | 0.83 | 0.79 | 0.777 | 0.237 | 0.185 | 0.201 | 0.211 | 0.195 | 0.934 | 0.869 | 0.882 | 0.753 | 0.806 | 0.378 | 0.322 | 0.345 | 0.279 | 0.212 | 0.833 |
| EMC-BAC-2 | 0.946 | 0.994 | 1.03 | 1.03 | 0.845 | 0.855 | 0.826 | 1.02 | 0.879 | 1.11 | 1.11 | 0.76 | 1.12 | 1.06 | 1.03 | 0.938 | 0.902 | 0.966 | 0.905 | 1.01 |
| EPLC-272H | 0.588 | 0.673 | 1 | 0.585 | 0.784 | 0.642 | 1.02 | 1.15 | 0.684 | 1.06 | 1.03 | 1.14 | 1 | 1.09 | 0.381 | 0.35 | 0.343 | 0.364 | 0.314 | 0.586 |
| H3255 | 0.988 | 0.848 | 1.09 | 0.963 | 0.225 | 0.227 | 0.234 | 0.261 | 0.251 | 0.5 | 0.421 | 0.332 | 0.161 | 0.108 | 0.766 | 0.559 | 0.565 | 0.387 | 0.207 | 0.879 |
| HARA | 0.869 | 0.831 | 0.975 | 0.786 | 0.692 | 0.862 | 0.643 | 1.01 | 0.676 | 1.1 | 0.996 | 1.13 | 1.07 | 1.15 | 0.466 | 0.653 | 0.515 | 0.559 | 0.578 | 0.876 |
| HCC-15 | 0.853 | 0.984 | 1.2 | 1.01 | 0.798 | 0.84 | 0.817 | 0.947 | 0.805 | 0.685 | 0.702 | 0.682 | 0.756 | 0.649 | 0.662 | 0.516 | 0.562 | 0.616 | 0.616 | 1.07 |
